“Also recorded” adds a separate entry of the source.
Experiments:
[1] = molecular target: T1, EZH2 SRM-SANT1 (residues 141–251) (Homo sapiens, UniProt Q15910); test: NMR titration (1H-15N HSQC) of SRM-SANT1 with histone peptides; format: binding; conditions: for chemical shift perturbations (CSPs) upon peptide addition: 1H-15N HSQC overlay, 25 °C, 0.05–0.10 mM 15N-SRM-SANT1, increasing concentrations of peptide; for effect of H4K16 acetylation on interaction/binding (NMR): 1H-15N HSQC titration of SRM-SANT1 with H4K16ac(1–21)
T1 construct: All additional studies were performed with the SRM-SANT1 construct containing residues 141–251; GST (N, cleaved yes); made in house; host or cells: E. coli Rosetta2 (DE3) pLysS
Text: (§1) The complete human EZH2 cDNA was obtained from OpenBiosystems (GE Healthcare, Accession #:BC010858). EZH2 SANT1 (residues 159–251) and SRM-SANT1 (residues 141–251) were subcloned into a pDEST15 (N-terminal GST-tag) expression vector using the Gateway Recombination cloning method (Invitrogen, ThermoScientific) with a PreScission Protease cleavage site engineered between the GST-tag and the N-terminus of EZH2 SRM-SANT1. Mutants were generated in the 141–251 construct using site-directed mutagenesis (Q5 mutagenesis kit, New England Biolabs).
(§2) For purification, cell pellets were thawed on ice and lysed by emulsiflex in a lysis buffer containing 150 mM NaCl, 50 mM Tris (pH 6.5), 3 mM DTT, 0.1% Triton X-100 and DNaseI. Lysate was cleared at 18,000 g for 1 hour at 4 °C. The soluble supernatant was incubated with glutathione agarose resin (ThermoFisher Scientific) and washed extensively with a buffer containing 900 mM NaCl, 50 mM Tris (pH 6.5) and 3 mM DTT. The GST-tag was cleaved by incubation with PreScission Protease overnight and SRM-SANT1 was further purified by FPLC using […] over a Source15S column and size exclusion chromatography over a superdex 75 column. The final buffer contained 150 mM NaCl, 50 mM Tris (pH 6.5), 3 mM DTT, with or without 5 mM EDTA.
Biotinylated histone H4K16ac (1–21, AS-64847-1) was obtained from Anaspec. All histone peptides were dissolved in H2O at a concentration of 20 mM, and the pH adjusted to ~7.0. DNA oligos were obtained from IDT. The DNA was annealed by mixing equimolar amounts of single stranded oligos. DNA was heated to 95 °C for 10 minutes before allowing to cool overnight. The annealed DNA was further purified by size exclusion chromatography over a superdex 75 column in a buffer containing 150 mM NaCl, 50 mM Tris (pH 6.5), 3 mM DTT, with 5 mM EDTA. Titrations were performed by collecting ^15N-HSQC spectra on 0.05–0.10 mM ^15N-EZH2 SRM-SANT1 while titrating in increasing concentrations of the respective ligands. Titration experiments were performed at 25 °C on a Bruker Avance II 800 MHz NMR spectrometer equipped with a 5 mm triple resonance cryoprobe. Data was processed and analyzed using NMRPipe and CcpNmr[53],[54].
Kd values were determined for all individual residues with significant Δδ in each individual titration.

SRM-SANT1 = test: Biotinylated histone peptide pulldown; format: binding, human; conditions: for effect of modification on SRM-SANT1 binding (pulldown): 1 μg SRM-SANT1 with 1 μg Biotin-tagged H4 peptide, overnight 4 °C, 150 mM NaCl, 50 mM Tris (pH 6.5), 3 mM DTT, streptavidin resin, coomassie, ImageJ, triplicate, vs corresponding unmodified peptide, p-value < 0.05; for effect of H4 modification on binding of SANT1 to H4 (abstract summary): summary statement in abstract
Text: as §1, §2
Biotinylated unmodified histone H4 (1–23, SKU:12-0029), unmodified H4 (11–27, SKU:12-0035), H4K16ac (1–23, SKU:12-0033), H4K20ac (1–24, SKU:12-0052) and H4K20me3 (11–27, SKU:12-0038) peptides were obtained from EpiCypher. 1 μg of purified SRM-SANT1 was incubated with 1 μg of Biotin-tagged H4 peptides unmodified or containing single modifications. Reactions were incubated overnight rocking end over end at 4 °C in a binding buffer containing 150 mM NaCl, 50 mM Tris (pH 6.5), 3 mM DTT. Streptavidin sepharose resin (25 μL of 50% slurry, GE Life Sciences) was added to each reaction and rocked end over end at 4 °C for two hours. The reactions were then spun at 2500 × g, supernatant decanted and beads washed with 500 μL of the binding buffer four times. After the final wash, beads were resuspended in 5x SDS loading dye, ran on a 4–20% gradient gel and visualized using coomassie staining. Gels were imaged using an ImageQuant LAS 4000 imager. Quantification of triplicate pull down experiments was performed using ImageJ[59].

T1 sequence (Q15910 141-251): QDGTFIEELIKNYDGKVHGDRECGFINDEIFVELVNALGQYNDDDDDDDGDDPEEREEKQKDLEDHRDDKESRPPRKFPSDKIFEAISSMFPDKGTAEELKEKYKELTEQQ

| Substance | chemical shift perturbations (CSPs) upon peptide addition [1] | effect of modification on SRM-SANT1 binding (pulldown) (SRM-SANT1) | effect of H4 modification on binding of SANT1 to H4 (abstract summary) (SRM-SANT1) | further results |
| --- | --- | --- | --- | --- |
| H4(1–10): unmodified histone H4 (1–10), custom synthesized by GenScript (SGRGKGGKGL) | very minor CSPs throughout SANT1, indicative of non-specific interactions |  |  |  |
| H4(11–21): unmodified histone H4 (11–21), custom synthesized by GenScript | confirms binding to the basic patch of H4; also recorded: very similar CSPs as was observed for H4(1–21) |  |  | fold weaker binding (Kd) than H4 tail (1–21) ([1]; ratio of Kd to that of H4 (1–21)): ~ 2 x |
| H4K16ac(1–21): Biotinylated histone H4K16ac (1–21, AS-64847-1), obtained from Anaspec; NMR titration |  |  |  | effect of H4K16 acetylation on interaction/binding (NMR) [1]: abrogates binding; effect of H4K16 acetylation on interaction/binding (NMR) ([1]; listed as H4K16ac peptide): substantially abrogates interaction with the H4 tail |
| H4K16ac: H4K16ac (1–23, SKU:12-0033), biotinylated peptide from EpiCypher; pulldown |  | significant decreases in SRM-SANT1 binding | abrogate binding of SANT1 to H4 |  |
| H4K20ac: H4K20ac (1–24, SKU:12-0052), biotinylated peptide from EpiCypher |  | decreased binding, though not statistically significantly | abrogate binding of SANT1 to H4 |  |
| H4K20me3: H4K20me3 (11–27, SKU:12-0038), biotinylated peptide from EpiCypher |  | significant decreases in SRM-SANT1 binding | abrogate binding of SANT1 to H4 |  |

From article PMC6353875, “The EZH2 SANT1 domain is a histone reader providing sensitivity to the modification state of the H4 tail” (Scientific Reports, 2019)
